Measurements: article PMC13091788 (NPJ Aging, 2026)
Read-outs that look alike come from different tables or passages of the source.

Experiments:
PAMPA assay = type: in vitro ADME; settings: 37 °C, 4 h
Method: To determine the passive membrane diffusion rates, Corning Gentest Pre-coated PAMPA Plate System was used. The acceptor plate was prepared by adding 200 μL of 0.1 M phosphate buffer (pH 4.5–8.6) supplemented with 5% DMSO to each well, and then 300 μL of 30 μM compounds in 0.1 M phosphate buffer (pH 4.5–8.6) with 5% DMSO were added to the donor wells. The acceptor plate was then placed on top of the donor plate and incubated at 37 °C for 4 h without agitation. After the incubation, the plates were separated and the solutions from each well of both the acceptor plate and the donor plate were transferred to 96-well plates and mixed with acetonitrile. The final concentrations of compounds in both donor and acceptor wells, as well as the concentrations of the initial donor solutions, were analyzed using liquid chromatography-tandem mass spectrometry (LC-MS/MS). The permeability of the compounds was calculated as described in a previous study. […] Two technical replicates were performed.

[1] = set-up: method as in PMID 24593257; settings: cited from earlier work
C2C12 cells = experiment: Mitochondrial morphology analysis (anti-Tom20, MiNA); type: cell-based, mouse; settings: C2C12, Q-BRB or AcA-BRB 10 μM, 48 h
Method: Cells were fixed with 4% paraformaldehyde in PBS for 15 min at 37 °C, washed three times with PBS, and permeabilized with 0.1% Triton X-100 in PBS for 10 min at room temperature (RT). After three additional washes with PBS, cells were blocked with 10% bovine serum albumin (BSA) in PBS for 10 min at RT. Cells were incubated with anti-Tom20 primary antibody (1:750 dilution, 11802-1-AP, Proteintech) in PBS containing 5% BSA for 1 h at RT, followed by three PBS washes. Hoechst 33342 (1:2000 dilution) and Alexa Fluor-conjugated secondary antibody (1:500 dilution, A11029, Invitrogen) in PBS containing 5% BSA were applied for 30 min at RT.
After three final PBS washes, cells were mounted with Fluorescent Mounting Medium (S3023, Dako), and imaged using an FV3000 confocal laser scanning microscope (Olympus). Images were acquired as Z-stacks with 0.2 μm intervals and reconstructed into maximum intensity projections using Fiji/ImageJ software.
Mitochondrial morphology was quantified using the MiNA plugin for Fiji (https://imagej.net/plugins/mina). Thirty cells per group were randomly selected for analysis. Average mitochondrial length and other morphological parameters were calculated according to the plugin’s standard analysis pipeline.

[2] = system: high-fat diet (HFD32)-fed mice; experiment: Survival analysis in high-fat diet-fed mice; type: in vivo, mouse; settings: 0.5 mg/mL in drinking water from 60 weeks old, HFD32 from 8 weeks of age
Method: For survival analysis under metabolic stress conditions, two-month-old C57BL/6NJcl male mice fed a high-fat diet (HFD 32: water 6.2%, protein 25.5%, fat 32.0%, ash 4.0%, carbohydrate 29.4%, fiber 2.9%, providing 507.6 kcal/100 g; CLEA) were randomly assigned to two groups: tap water only and tap water supplemented with AcA-BRB (0.5 mg/mL).

[3] = system: 24-month-old male C57BL/6 N mice; experiment: Age-related cardiac dysfunction in aged mice; type: in vivo, mouse
From the text: All experimental procedures were approved by the Ethics Review Committee for Animal Experimentation at Kumamoto University, Kumamoto, Japan (approval No. A 2024-083). Procedures followed the guidelines and recommendations outlined by the ILAR Guide for the Care and Use of Laboratory Animals (8th Edition, 2011). Prior to tissue collection, mice were euthanized under isoflurane anesthesia, followed by cervical dislocation to ensure rapid euthanasia, a procedure also employed during sacrifice for tissue harvesting. Euthanasia was performed when animals met the established criteria for humane endpoints, specifically a body weight loss exceeding 20% over a 3-day period or 25% over a 1-week period, in accordance with the Kumamoto University Ethics Review Committee for Animal Experimentation above. All animals fed a normal diet (CE-2, CLEA) were randomly assigned to two groups: tap water only and tap water supplemented with AcA-BRB (0.5 mg/mL). Mice were housed in an animal facility with lighting cycles automatically controlled (12 h light/12 h dark), maintained at a stable temperature of 22 ± 2 °C and a relative humidity of 40–80%. C57BL/6NJcl wild-type (WT) male mice aged 2, 20, and 24 months were used in this study. Mice were preconditioned by chest hair removal with a topical depilatory (FUJIFILM VisualSonics), anesthetized with 1.5–2.5% isoflurane administered via inhalation, and maintained in a supine position on a dedicated animal handling platform with limbs immobilized for electrocardiogram gating during imaging. Body temperature was kept constant by relaying signals from a rectal probe to a heating pad, while heart and respiratory rates were continuously monitored. Transthoracic echocardiography was performed using a high-frequency ultrasound system dedicated to small-animal imaging (VisualSonics Vevo 3100, FUJIFILM VisualSonics) using a MS 400 linear array transducer (18–38 MHz). M-mode recording was performed at the midventricular level in the short-axis view. All images were analyzed using dedicated software (Vevo LAB version 5.7.1). LV wall thickness and internal cavity diameters at diastole (LVID;d) and systole (LVID;s) were measured. Percent LV fractional shortening (%FS) and Left Ventricular Ejection Fraction (LVEF) was calculated from M-mode measurements. To analyze cardiac diastolic function, trans-mitral flow velocity patterns and early diastolic mitral annular velocity (e’) were measured in the four-chamber view to calculate the ratio of early trans-mitral flow velocity (E) to e’ (E/e’). All procedures were performed under double-blind conditions with regard to genotype or treatment. Total RNA was extracted using a RNeasy Mini Kit (Qiagen). DNase-treated RNA was reverse-transcribed using a PrimeScript RT reagent Kit (Takara Bio). Heart tissue was homogenized using a multi-beads shocker (Yasui Kikai). Real-time quantitative RT-PCR was performed using TB Green Premix Ex Taq II (Takara Bio), and a Thermal Cycler Dice Real-Time System (Takara Bio). Relative transcript abundance was normalized to 18S rRNA levels. Primer sets used for RT-PCR are listed in Supplementary Table 3.

[4] = donor/acceptor pH 6.4/7.4, 30 μM, read-out: Membrane permeability pH6.4/7.4
[5] = donor/acceptor pH 7.4/7.4, 30 μM, read-out: Membrane permeability pH7.4/7.4
[6] = AcA-BRB 0.5 mg/mL in drinking water, 24-month-old mice, vs control
[7] = AcA-BRB 0.5 mg/mL in drinking water, aged mice

Structure (SMILES) | Papp at 4 h, 30 μM (PAMPA assay; [4]) | Papp at 4 h, 30 μM (PAMPA assay; [5]) | Papp at 4 h, 30 μM (PAMPA assay; donor/acceptor pH 8.6/8.6, 30 μM, read-out: Membrane permeability pH8.6/8.6) | water solubility (literature) [1] | Papp at 4 h, 30 μM (PAMPA assay; donor/acceptor pH 4.5/4.5, 30 μM, read-out: Membrane permeability pH4.5/4.5) | mitochondrial elongation (C2C12 cells) | lifespan compared with control mice [2] | blood pressure and heart rate vs control mice ([3]; 24-month-old mice, 3 months of treatment with AcA-BRB) | age-related progression of left ventricular dilatation, systolic dysfunction and diastolic dysfunction (echocardiography) ([3]; AcA-BRB 0.5 mg/mL in drinking water, 24-month-old mice, after 12 weeks, vs control) | cardiac hypertrophy (HW/TL ratio, histology) and pulmonary congestion (LW/TL ratio) [3, 6] | upregulation of genes associated with heart failure and cardiac fibrosis (qRT-PCR, heart) [3, 6] | LC3A/B II/I ratio in heart tissues (western blot) [3, 7] | expression of genes associated with ROS-scavenging systems (heart) [3, 7] | expression of genes associated with mitochondrial biogenesis, dynamics and mitophagy (heart) [3, 7] | p62 levels in heart tissues (western blot) [3, 7]
COc1ccc2cc3n(cc-2c1=O)CCc1cc2c(cc1-3)OCO2 [Q-BRB, quinoid-type berberrubine] | 1.63 ×10⁻⁶ cm/s | 2.9 ×10⁻⁶ cm/s | 2.6 ×10⁻⁶ cm/s | water-insoluble | – | – | – | – | – | – | – | – | – | – | –
COc1ccc2cc3[n+](cc2c1O)CCc1cc2c(cc1-3)OCO2 [AcA-BRB, berberrubine acetic acid adduct] | 1.87 ×10⁻⁶ cm/s | 1.8 ×10⁻⁶ cm/s | – | – | 0.22 ×10⁻⁶ cm/s | – | – | – | – | – | – | – | – | – | –
COc1ccc2cc3[n+](cc2c1O)CCc1cc2c(cc1-3)OCO2 [berberrubine] | – | – | – | – | – | significantly enhanced | significantly prolonged | comparable | ameliorated | improved | blocked | increase | upregulated | significantly increased | decrease
